{"source": "paper PMC7734798", "about": "(ACS Medicinal Chemistry Letters, 2020)", "key": {"[1]": {"system": "primary rat cerebellar granule neurons (CGNs)", "assay": "Neuroprotection assay: glutamate/glycine excitotoxicity in differentiated CGNs (MTT)", "format": "cell-based", "details": "CGNs 8 DIV", "description": "Several lines of evidence point to MS as not only an inflammatory but also a neurodegenerative disease. Thus, neuroprotective agents may hold promise for MS therapy.[32] […] Thus, to test the neuroprotective capability of 1 and 2, we used a glutamate excitotoxicity model of primary cultural neurons. At day 8 in vitro (8 DIV), CGNs were pretreated with the compounds for 6 h, before adding 100 μM glutamate/10 μM glycine insult for further 24 h. […] Furthermore, while reference compounds (alone and in combination) increase glutamate/glycine excitotoxicity at higher doses, 1 was not toxic even at the highest concentration tested (25 μM). […]\ncommittee (Protocol n° 17-72-1212) and performed according to Italian and European Community laws on the use of animals for experimental purposes. […]\nheat-inactivated FBS (Aurogene), 2 mM glutamine, 100 μM gentamicin sulphate and 25 mM KCl (all from Sigma-Aldrich). […] The viability of CGNs exposed to increasing concentrations of the studied compounds (0, 5, 10 and 25 μM) for 24 h was evaluated through the MTT assay. […] Following a 20 min incubation at 37 °C in the dark, the MTT precipitate was dissolved in 0.1 M Tris-HCl pH 7.5 buffer containing 5% Triton X-100 (all from Sigma-Aldrich) and absorbance was read at 570 nm in a multiplate spectophotometric reader (Bio-Rad). […] After 24 hours, neuronal survival has been evaluated through MTT assay. […]"}, "CNPase": {"system": "CNPase", "assay": "Oli-Neu differentiation marker CNPase expression (Western blot)", "format": "cell-based, mouse", "details": "Oli-Neu cells, 5 μM, 72 h", "from_the_text": "OPC proliferation and migration to the CNS injury site as well as their differentiation are critical steps toward remyelination in MS. HDAC activity plays a crucial role in OPC proliferation/differentiation; therefore, HDAC modulation is widely considered a promising therapeutic target for MS.[30] […] Therefore, we tested the effect of our compounds on OPC proliferation and differentiation, through cell counting, measure of filaments, and analysis of proliferation/differentiation markers (Figure 7). […]\nAfter 24 hours, the viability was evaluated through the MTT assay. […]\n48 hours, for cell counting and measure of filaments, 5 random images for each condition were acquired with an Eclipse TS100 (Nikon) microscope using a 10X objective. Cells number and filament length were measured with Fiji ImageJ2 software. After 48 hours for proliferation and 72 hours of treatment for differentiation analysis, cells were lysed in ice-cold lysis buffer (50 mM Tris-HCl pH 7.4, 1% SDS, 0.05% protease inhibitor cocktail; all from Sigma-Aldrich) and protein content was determined by using the Lowry method. […]"}}}
{"smiles": "CC/C=C\\C/C=C\\C/C=C\\CCCCCCCC(=O)NCCNC(=O)C(CCC)CCC", "note": "[compound 1]", "values": [{"measurement": "toxicity under glutamate/glycine excitotoxicity at higher doses", "setting": "[1]; 100 μM glutamate/10 μM glycine, highest concentration tested 25 μM", "value": "not toxic"}, {"measurement": "neuroprotection against glutamatergic excitotoxicity (MTT)", "setting": "[1]; 6 h pretreatment + 24 h with 100 μM glutamate/10 μM glycine, especially at 5 and 10 μM", "value": "more neuroprotective"}, {"measurement": "expression of CNPase, marker of differentiation", "setting": "CNPase", "value": "significant increase"}]}
